Here are results for twelve molecules from ChEMBL document CHEMBL1201862, “PubChem BioAssay data set” (2004).

Test systems include CCRF-CEM; EKVX; HCT-116; HCT-15; HL-60; HOP-62; HT-29; K562; KM12; LOX IMVI; M14; NCI-H226; NCI-H460; OVCAR-3; OVCAR-4; SF-539; SNB-19; U-251; A498; SK-MEL-5.
Holding throughout (assay): inhibition of tumour cell growth, NCI panel, 48 h

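These data come from cells grown in 96-well plates and exposed to compound for 48 hours at five concentrations. GI50: concentration for 50% inhibition of growth.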 Calls of active or inactive are those of the source. No stated cut-off is given here; in the data, active = GI50 up to about 1.1 µM and inactive = higher.

Turning to `Cc1cn(C2CC(O)C(CO)C2C)c(=O)[nH]c1=O` (configuration not stated), the GI50 in the experiment on CCRF-CEM was > 100 µM (inactive); with EKVX, > 100 µM (inactive); in the experiment on HCT-116, > 100 µM (inactive); in the experiment with HCT-15, greater than 100 µM; in the experiment with HL-60, > 100 µM (inactive); in the experiment on HOP-62, > 100 µM (inactive). Moreover, the GI50 with HT-29, in the experiment on K562, in the experiment on KM12, in the experiment on LOX IMVI, in the experiment with M14 and in the experiment with NCI-H226 was > 100 µM (inactive) each time. For the same molecule, the GI50 in the experiment on NCI-H460, with OVCAR-3, with OVCAR-4, in the experiment with SF-539, in the experiment on SNB-19 and in the experiment with U-251 was > 100 µM (inactive) each time.
As for `O[C@@]12Cc3c([nH]c4ccccc34)[C@@H]3Oc4cccc5c4[C@@]31CCN(CC1CC1)[C@@H]2C5`, the GI50 in the experiment on A498 was 25.2 µM (inactive); in the experiment with CCRF-CEM it was 11.3 µM (inactive); in the experiment on EKVX, 24.5 µM (inactive); in the experiment with HCT-15, 18.1 µM; in the experiment on HOP-62, 31.8 µM (inactive); in the experiment on HT-29, 15.9 µM (inactive). For the same molecule, the GI50 was 22.6 µM (inactive) with K562; 39.7 µM (inactive) in the experiment with KM12; 18.9 µM (inactive) with LOX IMVI; 23.7 µM (inactive) with M14; 46.1 µM (inactive) with NCI-H460; 22.3 µM (inactive) in the experiment on OVCAR-3. In addition, the GI50 in the experiment on OVCAR-4 was 22.5 µM (inactive); with SF-539, 20.9 µM (inactive); in the experiment with SK-MEL-5 it was 24.3 µM (inactive); in the experiment with SNB-19, 33 µM (inactive); in the experiment with U-251, 39.7 µM (inactive).
With `CSc1ncc2c(n1)sc1c(=O)n(-c3ccccc3)cnc12`, the GI50 with A498 was > 100 µM (inactive); in the experiment on CCRF-CEM, > 100 µM (inactive); with HCT-116, > 100 µM (inactive); in the experiment with HCT-15, greater than 100 µM; with HOP-62, > 100 µM (inactive); in the experiment on HT-29 it was > 100 µM (inactive). For the same molecule, the GI50 in the experiment with K562, with KM12, with LOX IMVI, in the experiment with M14, in the experiment on NCI-H226 and with NCI-H460 was > 100 µM (inactive) in each case. Moreover, the GI50 in the experiment with OVCAR-3, with OVCAR-4, in the experiment on SK-MEL-5, in the experiment with SNB-19 and with U-251 was > 100 µM (inactive) throughout.
In the case of `CCSc1nc(N/N=C/c2cccs2)c2cnn(CO)c2n1`, the GI50 in the experiment on A498 is 2.18 µM (inactive); in the experiment on EKVX, 9.08 µM (inactive); with HCT-116 it was 5.01 µM (inactive); in the experiment on HCT-15, 4.88 µM; in the experiment on HL-60 it was 5.15 µM (inactive); in the experiment on HOP-62, 4.25 µM (inactive). Moreover, the GI50 in the experiment with HT-29 was 3.85 µM (inactive); with K562, 4.13 µM (inactive); in the experiment with KM12, 0.408 µM (active); with M14 it was 6.11 µM (inactive); in the experiment on NCI-H226, 3.1 µM (inactive); with NCI-H460 it was 5.11 µM (inactive). The GI50 was 5.86 µM (inactive) with OVCAR-3; 23.6 µM (inactive) in the experiment on OVCAR-4; 10.5 µM (inactive) in the experiment with SF-539; 3.46 µM (inactive) in the experiment on SK-MEL-5; 10.8 µM (inactive) with SNB-19; 6.85 µM (inactive) with U-251.
Regarding `COc1cc2c(cc1OC)-c1cc3ccccc3c[n+]1CC2`, the GI50 in the experiment on CCRF-CEM is > 100 µM (inactive); with EKVX, > 100 µM (inactive); in the experiment with HCT-116, > 100 µM (inactive); with HOP-62 it was > 100 µM (inactive); in the experiment on HT-29, > 100 µM (inactive); in the experiment on K562, 48.4 µM (inactive). Also, the GI50 is 65.3 µM (inactive) with KM12; > 100 µM (inactive) in the experiment with LOX IMVI; > 100 µM (inactive) in the experiment with M14; > 100 µM (inactive) with NCI-H226; > 100 µM (inactive) in the experiment with NCI-H460; 51.5 µM (inactive) with OVCAR-3. For the same molecule, the GI50 in the experiment with OVCAR-4 is > 100 µM (inactive); in the experiment with SF-539 it was > 100 µM (inactive); with SK-MEL-5, 22.9 µM (inactive); in the experiment with SNB-19 it was > 100 µM (inactive); in the experiment with U-251, 33.6 µM (inactive).
Consider `CCCCCCCCCCCCCCCCCc1cc(Cl)nc(Cl)n1`, for which the GI50 was > 100 µM (inactive) in the experiment on CCRF-CEM; > 100 µM (inactive) with EKVX; greater than 100 µM in the experiment on HCT-15; 50.8 µM (inactive) with HL-60; > 100 µM (inactive) with HOP-62; > 100 µM (inactive) in the experiment with HT-29. The GI50 in the experiment with K562, with KM12, in the experiment with LOX IMVI, in the experiment on M14, in the experiment with NCI-H226 and in the experiment on NCI-H460 was > 100 µM (inactive) each time. Besides, the GI50 in the experiment with OVCAR-3, with OVCAR-4, with SF-539, with SK-MEL-5, in the experiment on SNB-19 and in the experiment on U-251 was > 100 µM (inactive) throughout.
For the molecule `N#Cc1ccc(-c2nc(C#N)c(N)o2)cc1`, the GI50 in the experiment with CCRF-CEM is > 10 µM (inactive); in the experiment on EKVX, > 10 µM (inactive); in the experiment with HCT-116, > 10 µM (inactive); in the experiment on HCT-15 it was greater than 10 µM; in the experiment on HL-60 it was > 10 µM (inactive); in the experiment on HOP-62, > 10 µM (inactive). The GI50 with HT-29, in the experiment with K562, in the experiment with KM12, with LOX IMVI, in the experiment on M14 and in the experiment on NCI-H226 was > 10 µM (inactive) in each case. For the same molecule, the GI50 with NCI-H460, in the experiment with OVCAR-4, in the experiment on SF-539, in the experiment with SK-MEL-5 and with SNB-19 was > 10 µM (inactive) each time.
Turning to `CC1(C)OC2OC(COC(=O)c3ccc(C#N)cc3)C3OC(C)(C)OC3C2O1` (configuration not stated), the GI50 is > 75 µM (inactive) in the experiment on A498; 50.7 µM (inactive) in the experiment on CCRF-CEM; > 75 µM (inactive) in the experiment on EKVX; > 75 µM (inactive) in the experiment with HCT-116; greater than 75 µM in the experiment with HCT-15; > 75 µM (inactive) in the experiment on HOP-62. For the same molecule, the GI50 in the experiment with HT-29, in the experiment with K562, in the experiment on KM12, with LOX IMVI, with M14 and in the experiment with NCI-H226 was > 75 µM (inactive) each time. In addition, the GI50 with OVCAR-3, with OVCAR-4, in the experiment with SF-539, in the experiment with SK-MEL-5, in the experiment with SNB-19 and in the experiment on U-251 was > 75 µM (inactive) throughout.
`Nc1ccc(Sc2nnc(N)s2)cc1`: the GI50 was > 100 µM (inactive) with CCRF-CEM; > 100 µM (inactive) in the experiment with EKVX; > 100 µM (inactive) with HCT-116; greater than 100 µM in the experiment on HCT-15; > 100 µM (inactive) in the experiment on HL-60; > 100 µM (inactive) in the experiment with HOP-62. Moreover, the GI50 with K562, in the experiment with KM12, in the experiment on M14, in the experiment on NCI-H460, in the experiment on OVCAR-4 and in the experiment with SF-539 was > 100 µM (inactive) each time. Further, the GI50 with SK-MEL-5, in the experiment on SNB-19 and in the experiment on U-251 was > 100 µM (inactive) each time.
As for `COC(=O)C1=C(C(=O)OC)C2(C)C=CC1O2` (configuration not stated), the GI50 with A498 is 23.7 µM (inactive); with EKVX it was 22 µM (inactive); with HCT-116, 10.5 µM (inactive); in the experiment on HCT-15 it was 16 µM; in the experiment with HOP-62, 34.9 µM (inactive); in the experiment with HT-29, 15.2 µM (inactive). Besides, the GI50 is 4.52 µM (inactive) in the experiment with K562; 16.7 µM (inactive) in the experiment on LOX IMVI; 17.3 µM (inactive) in the experiment with M14; 19.6 µM (inactive) with NCI-H226; > 100 µM (inactive) in the experiment on NCI-H460; 0.55 µM (active) in the experiment with OVCAR-3. Further, the GI50 is 13.1 µM (inactive) with OVCAR-4; 18.9 µM (inactive) in the experiment with SF-539; 18.5 µM (inactive) with SK-MEL-5; > 100 µM (inactive) in the experiment with SNB-19; 18 µM (inactive) with U-251.
Take `O=C1CNc2cc(N3CCCCC3)ccc2N1`: the GI50 is 99.5 µM (inactive) in the experiment on CCRF-CEM; 21.2 µM (inactive) in the experiment on EKVX; greater than 100 µM in the experiment with HCT-15; > 100 µM (inactive) in the experiment on HL-60; > 100 µM (inactive) in the experiment on HOP-62; 8.32 µM (inactive) with HT-29. Also, the GI50 in the experiment with K562 was > 100 µM (inactive); in the experiment with KM12, 49.4 µM (inactive); in the experiment on M14, 66.1 µM (inactive); in the experiment on NCI-H226 it was 16.3 µM (inactive); with NCI-H460, > 100 µM (inactive); in the experiment on OVCAR-3, > 100 µM (inactive). The GI50 in the experiment on OVCAR-4 is > 100 µM (inactive); with SF-539, > 100 µM (inactive); with SK-MEL-5, 43.8 µM (inactive); in the experiment with SNB-19 it was > 100 µM (inactive); with U-251, > 100 µM (inactive).
With `COc1cc(O)cc(/C=C/c2ccc(O)cc2)c1`, the GI50 with A498 was 33.1 µM (inactive); in the experiment with EKVX, 28.4 µM (inactive); in the experiment with HCT-116 it was 32 µM (inactive); in the experiment with HCT-15, 10.1 µM; in the experiment on HL-60 it was 27.2 µM (inactive); with HOP-62, 28.8 µM (inactive). Moreover, the GI50 was 40.4 µM (inactive) with HT-29; 28.2 µM (inactive) with K562; 25.4 µM (inactive) with KM12; 24.3 µM (inactive) in the experiment on M14; 24.7 µM (inactive) with NCI-H226; 44.7 µM (inactive) with NCI-H460. The GI50 is 41.3 µM (inactive) in the experiment on OVCAR-3; 44.6 µM (inactive) with OVCAR-4; 35.6 µM (inactive) in the experiment on SF-539; 30.7 µM (inactive) in the experiment on SK-MEL-5; 36.6 µM (inactive) in the experiment on SNB-19; 22.4 µM (inactive) with U-251.
